According to paper PMC8952364, “Polyphenols as Inhibitors of Antibiotic Resistant Bacteria—Mechanisms Underlying Rutin Interference with Bacterial Virulence” (Pharmaceuticals, 2022):
Converted amounts (≈) assume the structure as drawn. Read-outs that look alike come from different tables or passages of the source.

How the values were obtained:
[1] = test system: Methicillin resistant S. aureus IBRS MRSA 011; assay: Antimicrobial microdilution assay (MIC/MBC); format: cell-based, Staphylococcus aureus; conditions: for MIC: 37 °C, 24 h
Protocol: (§1) The bacterial suspension (0.5 Mc Farland) was prepared, and twenty-fold dilutions of these suspensions were mixed in a 1:10 ratio with the corresponding polyphenol dilution (0.0039–1 mg/mL). Microtiter plates were incubated at 37 °C for 24 h. The lowest concentrations without visible growth (under a binocular microscope) were defined as MICs. The bactericidal concentrations (MBCs) were determined by serial subcultivation of 2 μL of the well’s content and further incubation for 24 h at 37 °C. Streptomycin (SigmaAldrich, Darmstadt, Germany) was used as a positive control. The polyphenols were obtained from Extrasynthese, Rhone, France (rutin, isoquercitrin) and SigmaAldrich, Germany (hesperetin, hesperidin, naringenin, naringin, taxifolin, morin, chlorogenic acid, ferulic acid, p-coumaric acid, and gallic acid). The stock compounds were prepared in ethanol (30%), and adequate ethanol concentrations were used as the negative control in the assays. Experiments were done in triplicate.

[2] = test system: P. aeruginosa IBRS P001 biofilm; assay: Crystal violet antibiofilm assay (biofilm formation); format: cell-based, Pseudomonas aeruginosa; conditions: MIC and sub-MIC, 24 h, crystal violet, Figure 1
Protocol: After incubation, each well was washed twice with sterile PBS (phosphate-buffered saline, pH 7.4) and fixed with methanol for 10 min. After removal of methanol the plate was air-dried. The biofilm was stained with 0.1% crystal violet (Bio-Merieux, Marcy l’Etoile, France) for 30 min. The plate was washed with water, air dried, and the stain was dissolved with 200 μL of 96% ethanol (Zorka, Sabac, Serbia). The absorbance was read at 620 nm on a Multiskan™ FC microplate photometer (Thermo Scientific™, Waltham, MA, USA). The results are presented as biofilm forming capacity (%) compared to control.

[3] = test system: HaCaT cells; assay: Cytotoxicity in HaCaT cell line (crystal violet assay); format: cell-based, human; conditions: Homo sapiens; HaCaT, 24 h treatment, crystal violet; read-out: IC50 (compound concentration that inhibited 50% of the cell growth)
Protocol: For determination of the polyphenols’ cytotoxic effect, a crystal violet assay was used, with modifications. The cytotoxic effect of polyphenols was analyzed on spontaneously immortalized human skin keratinocytes (HaCaT, AddexBio No. T0020001, San Diego, CA, USA) cell lines. […] Cells (1 × 10^4 cells/well) were seeded in a 96-well plate (Sarstedt, Nümbrecht, Germany) 24 h before treatment. […] Cells were incubated with the compounds for 24 h. […] After crystal violet was removed, the plates were washed in a stream of tap water and left to air-dry at room temperature for 24 h. The absorbance was measured in a microplate reader (Multiskan™ FC Microplate Photometer, Thermo Scientific™) at 590 nm. The results were expressed as IC50 value in μg/mL. The criterion used to categorize the cytotoxic activity polyphenols was as follows: […] All analyses were performed in triplicate; each replicate was also quantified three times. Data were expressed as mean standard deviation, where applicable.

[4] = test system: A. xylosoxidans 37F; assay: Antimicrobial microdilution assay (MIC/MBC); format: cell-based, Achromobacter xylosoxidans; conditions: Achromobacter xylosoxidans, 37F
Protocol: as §1

[5] = test system: E. coli IBRS E003; assay: Antimicrobial microdilution assay (MIC/MBC); format: cell-based, Escherichia coli; conditions: Escherichia coli, IBRSE003
Protocol: as §1

[6] = test system: E. coli IMD989; assay: Antimicrobial microdilution assay (MIC/MBC); format: cell-based, Escherichia coli; conditions: Escherichia coli, IMD989
Protocol: as §1

[7] = test system: S. infantis 1371/1; assay: Antimicrobial microdilution assay (MIC/MBC); format: cell-based, Salmonella Infantis; conditions: Salmonella enterica, 1371/1
Protocol: as §1

[8] = test system: K. pneumoniae Ni9; assay: Antimicrobial microdilution assay (MIC/MBC); format: cell-based, Klebsiella pneumoniae; conditions: Klebsiella pneumoniae, NI9
Protocol: as §1

[9] = test system: K. pneumoniae IT977; assay: Antimicrobial microdilution assay (MIC/MBC); format: cell-based, Klebsiella pneumoniae; conditions: Klebsiella pneumoniae, IT977
Protocol: as §1

[10] = test system: A. baumannii S2/2; assay: Antimicrobial microdilution assay (MIC/MBC); format: cell-based, Acinetobacter baumannii; conditions: Acinetobacter baumannii, S2/2
Protocol: as §1

[11] = test system: A. baumannii 6077/12; assay: Antimicrobial microdilution assay (MIC/MBC); format: cell-based, Acinetobacter baumannii; conditions: Acinetobacter baumannii, 6077/12
Protocol: as §1

[12] = test system: S. aureus USA300; parameters: method as in PMID 34295320; conditions: methicillin resistant strain; cited from earlier work
[13] = test system: P. aeruginosa MMA83; assay: Antimicrobial microdilution assay (MIC/MBC); format: cell-based, Pseudomonas aeruginosa; conditions: Pseudomonas aeruginosa, MMA83
Protocol: as §1

[14] = test system: P. aeruginosa IBRS P001; assay: Antimicrobial microdilution assay (MIC/MBC); format: cell-based, Pseudomonas aeruginosa; conditions: Pseudomonas aeruginosa, IBRSP001
Protocol: as §1

[15] = test system: eleven antibiotic resistant strains of bacteria; assay: Antimicrobial assay, summary over the examined strains; format: cell-based; conditions: antibiotic resistant strains of Table 1; read-out: lowest MIC among the examined strains
Protocol: as §1

[16] = subcultivation, 24 h at 37 °C, read-out: MBC

O=C1c2c(O)cc(O)cc2OC(c2ccc(O)c(O)c2)C1O (stereo not drawn) [Taxifolin, taxifolin]
MIC [1]: 250 µg/mL (≈ 0.822 mM)
MIC ([1]; Staphylococcus aureus, MRSA, read-out: MIC): 250 µg/mL (≈ 0.822 mM)
MBC ([1]; Staphylococcus aureus, MRSA, subcultivation, 24 h at 37 °C, read-out: MBC): 500 µg/mL (≈ 1.64 mM)
reduction of biofilm formation (biomass), in words [2]: not significantly altered
IC50 [3]: 495 ± 47 µg/mL (≈ 1.63 mM)
MIC ([4]; 37 °C, 24 h, read-out: MIC): 1000 µg/mL (≈ 3.29 mM)
MBC [4, 16]: 1000 µg/mL (≈ 3.29 mM)
MIC ([5]; 37 °C, 24 h, read-out: MIC): 500 µg/mL (≈ 1.64 mM)
MBC [5, 16]: 1000 µg/mL (≈ 3.29 mM)
MIC ([6]; 37 °C, 24 h, read-out: MIC): 1000 µg/mL (≈ 3.29 mM)
MBC [6, 16]: 1000 µg/mL (≈ 3.29 mM)
MIC ([7]; 37 °C, 24 h, read-out: MIC): > 1000 µg/mL
MBC [7, 16]: > 1000 µg/mL
MIC ([8]; 37 °C, 24 h, read-out: MIC): 1000 µg/mL (≈ 3.29 mM)
MBC [8, 16]: 1000 µg/mL (≈ 3.29 mM)
MIC ([9]; 37 °C, 24 h, read-out: MIC): > 1000 µg/mL
MBC [9, 16]: > 1000 µg/mL
MIC ([10]; 37 °C, 24 h, read-out: MIC): 500 µg/mL (≈ 1.64 mM)
MBC [10, 16]: 500 µg/mL (≈ 1.64 mM)
MIC ([11]; 37 °C, 24 h, read-out: MIC): 500 µg/mL (≈ 1.64 mM)
MBC [11, 16]: 1000 µg/mL (≈ 3.29 mM)
MIC [12]: 512 µg/mL (≈ 1.68 mM)
MIC ([13]; 37 °C, 24 h, read-out: MIC): 1000 µg/mL (≈ 3.29 mM)
MBC [13, 16]: > 1000 µg/mL
MIC ([14]; 37 °C, 24 h, read-out: MIC): 250 µg/mL (≈ 0.822 mM)
MBC [14, 16]: 500 µg/mL (≈ 1.64 mM)
MIC [15]: 250 µg/mL (≈ 0.822 mM)
